This test has as its system RS4; 11 with G101V mutation. The test can be described thus: In vitro anti-proliferation assay (ATPlite luminescence) in BCL-2-dependent ALL cell line RS4;11 with G101V mutation. In kind it is cell-based. The following applies: read-out: RS411-G101V IC50. Summed up:
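IC50 came from luminescent ATP quantification (ATPlite) following cell lysis. Compound dose ranges were applied for roughly 72 h to about 1×10^4 G101V-mutant RS4;11 cells per well, in 10% FBS medium.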

Setting [1] is: cellular anti-proliferative IC50, about 72 hours, medium with 10% FBS, ATPlite.

Like-named read-outs stand apart in the source and are kept apart here.

Among the data in patent publication US20250114374A1, “BCL-2 INHIBITORS” (Newave Pharmaceutical Inc., priority 2021, published 2025) are IC50 values, retold here.

In general, IC50 refers to the concentration needed to halve the response being measured. `Cc1ccccc1[C@@H]1CN(C2CCC(N3CCOC[C@@H]3C)CC2)CCN1C1CC2(CCN(c3ccc(C(=O)NS(=O)(=O)c4cc5c(c([N+](=O)[O-])c4)N[C@H](C4CCOCC4)CO5)c(N4c5cc6cc[nH]c6nc5O[C@H]5COCC[C@@H]54)c3)CC2)C1` (stereo partly drawn) [Example 204, 4-(2-((R)-4-((1R,4S)-4-((S)-3-methylmorpholino)cyclohexyl)-2-(o-tolyl)piperazin-1-yl)-7-azaspiro[3.5]nonan-7-yl)-N-(((R)-5-nitro-3-(tetrahydro-2H-pyran-4-yl)-3,4-dihydro-2H-benzo[b][1,4]oxazin-7-yl)sulfonyl)-2-((5aS,9aR)-6,7,9,9a-tetrahydro-1H-pyrano[3,4-b]pyrrolo[3′,2′:5,6]pyrido[3,2-e][1,4]oxazin-5(5aH)-yl)benzamide]: the IC50 under setting [1] was determined as 27.5 nM. `Cc1ccc(CN2CCN(C3CC4(CCN(c5ccc(C(=O)NS(=O)(=O)c6cc7c(c([N+](=O)[O-])c6)N[C@H](C6CCOCC6)CO7)c(N6c7cc8cc[nH]c8nc7O[C@H]7COCC[C@@H]76)c5)CC4)C3)[C@H](c3ccccc3OC(C)C)C2)cn1` [Example 254, 4-(2-((R)-2-(2-isopropoxyphenyl)-4-((6-methylpyridin-3-yl)methyl)piperazin-1-yl)-7-azaspiro[3.5]nonan-7-yl)-N-(((R)-5-nitro-3-(tetrahydro-2H-pyran-4-yl)-3,4-dihydro-2H-benzo[b][1,4]oxazin-7-yl)sulfonyl)-2-((5aS,9aR)-6,7,9,9a-tetrahydro-1H-pyrano[3,4-b]pyrrolo[3′,2′:5,6]pyrido[3,2-e][1,4]oxazin-5(5aH)-yl)benzamide]: the IC50 (Homo sapiens, RS4-11, 72 h) turned out to be 3.19 nM.

For the compound `CC(C)Oc1ccccc1[C@H]1CN(Cc2ccc(F)c(F)c2)CCN1C1CC2(CCN(c3ccc(C(=O)NS(=O)(=O)c4ccc(NCC5CCOCC5)c([N+](=O)[O-])c4)c(N4c5cc6cc[nH]c6nc5O[C@H]5COCC[C@@H]54)c3)CC2)C1` [Example 185, 4-{2-[(2S)-4-[(3,4-difluorophenyl)methyl]-2-(2-isopropoxyphenyl)piperazin-1-yl]-7-azaspiro[3.5]nonan-7-yl}-2-[(3R,8S)-2,5-dioxa-9,15,17-triazatetracyclo[8.7.0.0^{3,8}.0^{12,16}]heptadeca-1(10),11,13,16-tetraen-9-yl]-N-{3-nitro-4-[(oxan-4-ylmethyl)amino]benzenesulfonyl}benzamide], under setting [1], the IC50 was 112 nM. As to `CC(C)Oc1ccccc1[C@H]1CN(Cc2ccc(F)c(F)c2)CCN1C1CC2(CCN(c3ccc(C(=O)NS(=O)(=O)c4ccc(NCC5CCC(C)(O)CC5)c([N+](=O)[O-])c4)c(N4c5cc6cc[nH]c6nc5O[C@H]5COCC[C@@H]54)c3)CC2)C1` (stereo partly drawn) [Example 115, 4-{2-[(2S)-4-[(3,4-difluorophenyl)methyl]-2-(2-isopropoxyphenyl)piperazin-1-yl]-7-azaspiro[3.5]nonan-7-yl}-2-[(3R,8S)-2,5-dioxa-9,15,17-triazatetracyclo[8.7.0.0^{3,8}.0^{12,16}]heptadeca-1(10),11,13,16-tetraen-9-yl]-N-[3-nitro-4-({[(1r,4r)-4-hydroxy-4-methylcyclohexyl]methyl}amino)benzenesulfonyl]benzamide], the IC50 under setting [1] was found to be 27.3 nM.

With `CC(C)Oc1ccccc1[C@@H]1CN([C@H]2CCOc3nc(N4CCOC[C@@H]4C)c(F)cc32)CCN1C1CC2(CCN(c3ccc(C(=O)NS(=O)(=O)c4cc5c(c([N+](=O)[O-])c4)N[C@H](C4CCOCC4)CO5)c(N4c5cc6cc[nH]c6nc5O[C@H]5COCC[C@@H]54)c3)CC2)C1` [Example 218, 4-(2-((R)-4-((S)-6-fluoro-7-((S)-3-methylmorpholino)-3,4-dihydro-2H-pyrano[2,3-b]pyridin-4-yl)-2-(2-isopropoxyphenyl)piperazin-1-yl)-7-azaspiro[3.5]nonan-7-yl)-N-(((R)-5-nitro-3-(tetrahydro-2H-pyran-4-yl)-3,4-dihydro-2H-benzo[b][1,4]oxazin-7-yl)sulfonyl)-2-((5aS,9aR)-6,7,9,9a-tetrahydro-1H-pyrano[3,4-b]pyrrolo[3′,2′:5,6]pyrido[3,2-e][1,4]oxazin-5(5aH)-yl)benzamide], the IC50 (Homo sapiens, RS4-11, 72 h) came out at 121 nM. Turning to `Cc1ccccc1[C@@H]1CN([C@@H]2CCCOC2)CCN1C1CC2(CCN(c3ccc(C(=O)NS(=O)(=O)c4cc5c(c([N+](=O)[O-])c4)N[C@H](C4CCOCC4)CO5)c(N4c5cc6cc[nH]c6nc5O[C@H]5COCC[C@@H]54)c3)CC2)C1` [Example 178, N—(((R)-5-nitro-3-(tetrahydro-2H-pyran-4-yl)-3,4-dihydro-2H-benzo[b][1,4]oxazin-7-yl)sulfonyl)-2-((5aS,9aR)-6,7,9,9a-tetrahydro-1H-pyrano[3,4-b]pyrrolo[3′,2′:5,6]pyrido[3,2-e][1,4]oxazin-5(5aH)-yl)-4-(2-((R)-4-((R)-tetrahydro-2H-pyran-3-yl)-2-(o-tolyl)piperazin-1-yl)-7-azaspiro[3.5]nonan-7-yl)benzamide], the IC50 (Homo sapiens, RS4-11, 72 h) worked out at 40.9 nM. Regarding `CC(C)Oc1ccccc1[C@@H]1CN(c2ccccn2)CCN1C1CC2(CCN(c3ccc(C(=O)NS(=O)(=O)c4cc5c(c([N+](=O)[O-])c4)N[C@H](C4CCOCC4)CO5)c(N4c5cc6cc[nH]c6nc5O[C@H]5COCC[C@@H]54)c3)CC2)C1` [Example 225, 2-[(3R,8S)-2,5-dioxa-9,15,17-triazatetracyclo[8.7.0.0^{3,8}.0^{12,16}]heptadeca-1(10),11,13,16-tetraen-9-yl]-4-{2-[(2R)-2-(2-isopropoxyphenyl)-4-(pyridin-2-yl)piperazin-1-yl]-7-azaspiro[3.5]nonan-7-yl}-N-[(3R)-5-nitro-3-(oxan-4-yl)-3,4-dihydro-2H-1,4-benzoxazin-7-ylsulfonyl]benzamide], under setting [1], the concentration for half-maximal inhibition (IC50) was found to be 180 nM. `Cc1ccccc1[C@@H]1CN(Cc2cnc(N3CCOC[C@@H]3C)c(C(F)(F)F)c2)CCN1C1CC2(CCN(c3ccc(C(=O)NS(=O)(=O)c4cc5c(c([N+](=O)[O-])c4)N[C@H](C4CCOCC4)CO5)c(N4c5cc6cc[nH]c6nc5O[C@H]5COCC[C@@H]54)c3)CC2)C1` [Example 206, 2-[(3R,8S)-2,5-dioxa-9,15,17-triazatetracyclo[8.7.0.0^{3,8}.0^{12,16}]heptadeca-1(10),11,13,16-tetraen-9-yl]-4-{2-[(2R)-4-({6-[(3S)-3-methylmorpholin-4-yl]-5-(trifluoromethyl)pyridin-3-yl}methyl)-2-(2-methylphenyl)piperazin-1-yl]-7-azaspiro[3.5]nonan-7-yl}-N-[(3R)-5-nitro-3-(oxan-4-yl)-3,4-dihydro-2H-1,4-benzoxazin-7-ylsulfonyl]benzamide]: the IC50 under setting [1] came to 229 nM.

`CC(C)Oc1ccccc1[C@@H]1CN([C@@H]2COCc3c(F)cc(F)cc32)CCN1C1CC2(CCN(c3ccc(C(=O)NS(=O)(=O)c4cc5c(c([N+](=O)[O-])c4)N[C@H](C4CCOCC4)CO5)c(N4c5cc6cc[nH]c6nc5O[C@H]5COCC[C@@H]54)c3)CC2)C1` [Example 231, 4-(2-((R)-4-((S)-6,8-difluoroisochroman-4-yl)-2-(2-isopropoxyphenyl)piperazin-1-yl)-7-azaspiro[3.5]nonan-7-yl)-N-(((R)-5-nitro-3-(tetrahydro-2H-pyran-4-yl)-3,4-dihydro-2H-benzo[b][1,4]oxazin-7-yl)sulfonyl)-2-((5aS,9aR)-6,7,9,9a-tetrahydro-1H-pyrano[3,4-b]pyrrolo[3′,2′:5,6]pyrido[3,2-e][1,4]oxazin-5(5aH)-yl)benzamide]: for the setting “Homo sapiens, RS4-11, 72 h”, the IC50 is 94.7 nM. For `Cc1ccccc1[C@@H]1CN(Cc2cnc3c(c2)OCCO3)CCN1C1CC2(CCN(c3ccc(C(=O)NS(=O)(=O)c4ccc(NCC5CCC(C)(O)CC5)c([N+](=O)[O-])c4)c(N4c5cc6cc[nH]c6nc5O[C@H]5COCC[C@@H]54)c3)CC2)C1` (stereo partly drawn) [Example 125, 2-[(3R,8S)-2,5-dioxa-9,15,17-triazatetracyclo[8.7.0.0^{3,8}.0^{12,16}]heptadeca-1(10),11,13,16-tetraen-9-yl]-4-{2-[(2R)-4-{2H,3H-[1,4]dioxino[2,3-b]pyridin-7-ylmethyl}-2-(2-methylphenyl)piperazin-1-yl]-7-azaspiro[3.5]nonan-7-yl}-N-[3-nitro-4-({[(1r,4r)-4-hydroxy-4-methylcyclohexyl]methyl}amino)benzenesulfonyl]benzamide], the IC50 under setting [1] came out at 13.9 nM. As to `COc1cc(CN2CCN(C3CC4(CCN(c5ccc(C(=O)NS(=O)(=O)c6ccc(NCC7CCC(C)(O)CC7)c([N+](=O)[O-])c6)c(N6c7cc8cc[nH]c8nc7O[C@H]7COCC[C@@H]76)c5)CC4)C3)[C@H](c3ccccc3C)C2)cnc1N1CCOCC1` (stereo partly drawn) [Example 123, N-((4-((((1r,4r)-4-hydroxy-4-methylcyclohexyl)methyl)amino)-3-nitrophenyl)sulfonyl)-4-(2-((R)-4-((5-methoxy-6-morpholinopyridin-3-yl)methyl)-2-(o-tolyl)piperazin-1-yl)-7-azaspiro[3.5]nonan-7-yl)-2-((5aS,9aR)-6,7,9,9a-tetrahydro-1H-pyrano[3,4-b]pyrrolo[3′,2′:5,6]pyrido[3,2-e][1,4]oxazin-5(5aH)-yl)benzamide], the IC50 under setting [1] stood at 2.9 nM.

Consider `Cc1ccccc1[C@@H]1CN(Cc2cnc(N3CCOC[C@@H]3C)c3c2C(C)(C)CCO3)CCN1C1CC2(CCN(c3ccc(C(=O)NS(=O)(=O)c4cc5c(c([N+](=O)[O-])c4)N[C@H](C4CCOCC4)CO5)c(N4c5cc6cc[nH]c6nc5O[C@H]5COCC[C@@H]54)c3)CC2)C1` [Example 252, 4-(2-((R)-4-((4,4-dimethyl-8-((S)-3-methylmorpholino)-3,4-dihydro-2H-pyrano[2,3-c]pyridin-5-yl)methyl)-2-(o-tolyl)piperazin-1-yl)-7-azaspiro[3.5]nonan-7-yl)-N-(((R)-5-nitro-3-(tetrahydro-2H-pyran-4-yl)-3,4-dihydro-2H-benzo[b][1,4]oxazin-7-yl)sulfonyl)-2-((5aS,9aR)-6,7,9,9a-tetrahydro-1H-pyrano[3,4-b]pyrrolo[3′,2′:5,6]pyrido[3,2-e][1,4]oxazin-5(5aH)-yl)benzamide], for which the IC50 (Homo sapiens, RS4-11, 72 h) is 1.88 nM.
